{"source": "patent US20140356423A1", "about": "“FORMULATIONS OF LYCOPENE IN COMBINATION WITH BISPHOSPHONATES BONE RESORPTION INHIBITORS” (priority 2013, published 2014)", "origin": "cited, not measured here", "key": {"[1]": {"system": "alkaline phosphatase activity"}, "[2]": {"system": "osteoblast-like SaOS-2 cells"}, "[3]": {"settings": "taken either concurrently with or 2 hours after breakfast"}, "[4]": {"settings": "tablet not taken with enough water, or patient not upright for approximately one-half hour after taking"}}, "note": "Where two headings read alike, the source gives them in different places.", "data": [{"smiles": "CC(C)=CCC/C(C)=C/C=C/C(C)=C/C=C/C(C)=C/C=C/C=C(C)/C=C/C=C(C)/C=C/C=C(\\C)CCC=C(C)C", "note": "[lycopene]", "values": [{"measurement": "alkaline phosphatase activity", "setting": "[1]; more mature cells grown in the presence of dexamethasone (SaOS+Dex cells)", "value": "stimulate alkaline phosphatase activity"}, {"measurement": "alkaline phosphatase activity", "setting": "[1]; younger cells grown in the absence of dexamethasone (SaOS-Dex cells), depending on the time of addition", "value": "inhibited or had no effect"}, {"measurement": "proliferation of osteoblast-like SaOS-2 cells", "setting": "[2]", "value": "stimulated the proliferation"}]}, {"smiles": "NCCCC(O)(P(=O)(O)O)P(=O)(O)O", "note": "[alendronate, 4-amino-1-hydroxybutylidene-1,1-biphosphonic acid]", "values": [{"measurement": "impairment of availability", "setting": "[3]", "value": "> 85", "unit": "%"}, {"measurement": "side effects", "setting": "[4]", "value": "esophageal irritation and erosion"}]}]}
